Eight compounds from patent publication US9999619B2, “Piperidin-4-yl azetidine derivatives as JAK1 inhibitors” (Incyte Corporation, priority 2010, dated 2018) can be followed below.

Type in all cases: biochemical
Assay [1] addresses Jak2 (a.a. 828-1132) (Homo sapiens (Human), UniProt O60674). Kind of assay: In vitro JAK kinase assay (HTRF, phosphorylation of a biotinylated peptide), JAK2. The settings on record: measured at 1 mM ATP. A digest of the protocol:
(§1)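 N-terminally His-tagged catalytic domains, baculovirus-expressed in insect cells and purified, were used as enzyme. Reactions ran 1 hr at room temperature and were stopped with a mix of 45 mM EDTA, 300 nM SA-APC and 6 nM Eu-Py20. The HTRF signal was read after 40 min of antibody binding.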
In general terms: Time-resolved FRET reads energy transfer from a long-lived donor to a nearby acceptor.

Assay [2] has as its target human JAK1 (a.a. 837-1142). The assay is described as follows: In vitro JAK kinase assay (HTRF, phosphorylation of a biotinylated peptide), JAK1. The settings on record: ratio of JAK2 IC50 to JAK1 IC50, measured at 1 mM ATP. In a few lines:
as §1

In assay [3] the target is human JAK1 (a.a. 837-1142) (Homo sapiens, UniProt P23458). Described as above. The settings on record: measured at 1 mM ATP. A digest of the protocol: as §1

Jak2 (a.a. 828-1132), sequence (O60674 828-1132): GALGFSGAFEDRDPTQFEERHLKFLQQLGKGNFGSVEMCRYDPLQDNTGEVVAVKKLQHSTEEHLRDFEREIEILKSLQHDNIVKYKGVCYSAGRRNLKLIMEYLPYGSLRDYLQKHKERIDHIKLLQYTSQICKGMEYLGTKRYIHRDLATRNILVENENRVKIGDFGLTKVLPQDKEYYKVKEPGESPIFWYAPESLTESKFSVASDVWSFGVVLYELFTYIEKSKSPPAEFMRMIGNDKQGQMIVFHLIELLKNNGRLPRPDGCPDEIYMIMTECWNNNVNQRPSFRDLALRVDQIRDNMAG

What is called IC50 is the point on the concentration scale where inhibition reaches its midpoint. Low values mean greater potency, high ones weaker potency. Regarding `N#CCC1(n2cc(-c3ncnc4[nH]ccc34)cn2)CN(C2CCN(C(=O)Nc3ncccc3F)CC2)C1` [Example 202, 4-{3-(cyanomethyl)-3-[4-(7H-pyrrolo[2,3-d]pyrimidin-4-yl)-1H-pyrazol-1-yl]azetidin-1-yl}-N-(3-fluoropyridin-2-yl)piperidine-1-carboxamide], the IC50 in assay [1] was 0.01 to 0.05 µM; in assay [3], at most 0.005 µM. In addition, the “IC50 Ratio JAK2/JAK1” value in assay [2] amounted to 6.4.
In the case of `N#CCC1(n2cc(-c3ncnc4[nH]ccc34)cn2)CN(C2CCN(C(=O)c3cccc(OC(F)(F)F)c3)CC2)C1` [Example 21, (3-[4-(7H-pyrrolo[2,3-d]pyrimidin-4-yl)-1H-pyrazol-1-yl]-1-{1-[3-(trifluoromethoxy)benzoyl]piperidin-4-yl}azetidin-3-yl)acetonitrile], the 50% inhibitory concentration (IC50) in assay [1] fell in the range of 0.01 to 0.05 µM; in assay [3], 0.005 to 0.02 µM. Also, in assay [2], the “IC50 Ratio JAK2/JAK1” value amounted to 3.2.
On to `N#CCC1(n2cc(-c3ncnc4[nH]ccc34)cn2)CN(C2CCN(C(=O)c3ccc(-c4nc5ccccc5o4)cc3)CC2)C1` [Example 136, {1-{1-[4-(1,3-benzoxazol-2-yl)benzoyl]piperidin-4-yl}-3-[4-(7H-pyrrolo[2,3-d]pyrimidin-4-yl)-1H-pyrazol-1-yl]azetidin-3-yl}acetonitrile], for which the IC50 in assay [1] is over 0.1 µM; in assay [3], 0.005 to 0.02 µM. Moreover, the “IC50 Ratio JAK2/JAK1” value in assay [2] is given as 5.6.
Taken in the same sequence, the figures for `N#CCC1(n2cc(-c3ccnc4[nH]ccc34)cn2)CN(C2CCN(C(=O)Nc3ccccc3Cl)CC2)C1` [Example 310, N-(2-chlorophenyl)-4-{3-(cyanomethyl)-3-[4-(1H-pyrrolo[2,3-b]pyridin-4-yl)-1H-pyrazol-1-yl]azetidin-1-yl}piperidine-1-carboxamide] were 0.01 to 0.05 µM, at most 0.005 µM and 9.0.
Taken in the same sequence, the figures for `N#CCC1(n2cc(-c3ccnc4[nH]ccc34)cn2)CN(C2CCN(C(=O)c3cc(C(F)(F)F)ncc3Cl)CC2)C1` [Example 298, {1-{1-[5-chloro-2-(trifluoromethyl)isonicotinoyl]piperidin-4-yl}-3-[4-(1H-pyrrolo[2,3-b]pyridin-4-yl)-1H-pyrazol-1-yl]azetidin-3-yl}acetonitrile] were 0.05 to 0.1 µM, 0.02 to 0.03 µM and 2.8.
Taken in the same sequence, the figures for `N#CCC1(n2ccc(-c3ncnc4[nH]ccc34)c2)CN(C2CCN(C(=O)c3ccc(C(F)(F)F)c(F)c3)CC2)C1` [Example 267, {1-{1-[3-fluoro-4-(trifluoromethyl)benzoyl]piperidin-4-yl}-3-[3-(7H-pyrrolo[2,3-d]pyrimidin-4-yl)-1H-pyrrol-1-yl]azetidin-3-yl}acetonitrile] were 0.05 to 0.1 µM, 0.005 to 0.02 µM and 6.6.
Take `N#CCC1(n2cc(-c3ncnc4[nH]ccc34)cn2)CN(C2CCN(Cc3c(Cl)cncc3Cl)CC2)C1` [Example 237, {1-{1-[(3,5-dichloropyridin-4-yl)methyl]piperidin-4-yl}-3-[4-(7H-pyrrolo[2,3-d]pyrimidin-4-yl)-1H-pyrazol-1-yl]azetidin-3-yl}acetonitrile]: the IC50 was in the range of 0.01 to 0.05 µM in assay [1] and 0.005 to 0.02 µM in assay [3]. Further, the “IC50 Ratio JAK2/JAK1” value in assay [2] is recorded as 2.3.
Taken in the same sequence, the figures for `N#CCC1(n2ccc(-c3ncnc4[nH]ccc34)c2)CN(C2CCN(C(=O)Nc3cnccc3C(F)(F)F)CC2)C1` [Example 291, 4-{3-(cyanomethyl)-3-[3-(7H-pyrrolo[2,3-d]pyrimidin-4-yl)-1H-pyrrol-1-yl]azetidin-1-yl}-N-[4-(trifluoromethyl)pyridin-3-yl]piperidine-1-carboxamide] were 0.05 to 0.1 µM, at most 0.005 µM and 20.3.
